Source: patent US8133886B2, “Heterobicyclic carboxamides as inhibitors for kinases” (Novartis AG, priority 2006, dated 2012)

Structure (SMILES) | melting point
O=C(Nc1ccc(Cl)c(C(F)(F)F)c1)N1COc2cc(Oc3ccnc(Cl)n3)ccc21 [Example 1, 6-(2-Chloro-pyrimidin-4-yloxy)-benzooxazole-3-carboxylic acid (4-chloro-3-trifluoromethyl-phenyl)-amide] | 140 to 142 °C
CS(=O)(=O)Nc1nccc(Oc2ccc3c(C(=O)Nc4ccc(F)c(C(F)(F)F)c4)cccc3c2)n1 [Example 13, 6-(2-Methanesulfonylamino-pyrimidin-4-yloxy)-naphthalene-1-carboxylic acid (4-fluoro-3-trifluoromethyl-Phenyl)-amide] | 246 °C
CCOC(=O)c1cc(Oc2ccc3c(C(=O)Nc4ccc(C(C)(C)C)cc4)cccc3c2)ncn1 [Example 18] | 177 to 178 °C
COc1ccc(-n2nc(C(C)(C)C)cc2NC(=O)c2cccc3cc(Oc4cc(NCCN(C)C)ncn4)ccc23)cc1 [Example 19, 6-[6-(2-Dimethylamino-ethylamino)-pyrimidin-4-yloxy]-naphtalene-1-carboxylic acid [5-tert-butyl-2-(4-methoxy-phenyl)-2H-pyrazol-3-yl]-amide] | 116 to 117 °C

Other lines, results leading:

melting point | Structure (SMILES)
202 to 203 °C | CC(C)(C)c1ccc(NC(=O)c2cccc3cc(Oc4cc(CO)ncn4)ccc23)cc1 [Example 18A, 6-(6-Hydroxymethyl-pyrimidin-4-yloxy)-naphthalene-1-carboxylic acid (4-tert-butyl-phenyl)-amide]
188 °C | COCc1cc(Oc2ccc3c(C(=O)Nc4ccc(C)c(C(F)(F)F)c4)cccc3c2)ncn1 [Example 18C, 6-(6-Methoxymethyl-pyrimidin-4-yloxy)-naphthalene-1-carboxylic acid (4-methyl-3-trifluoromethyl-phenyl)-amide]
